This note sets out measurements from patent US20240269298A1, “PHOSPHONYL DERIVATIVE, AND COMPOSITION AND PHARMACEUTICAL APPLICATION THEREOF” (XIZANG HAISCO PHARMACEUTICAL CO., LTD., priority 2021, published 2024).

Assay [1] deals with NCI-H1975 (EGFR-L858R-T790M) cells. As to the kind of experiment: Inhibitory activity on proliferation of NCI-H1975 (EGFR-L858R-T790M) cells (CTG, 72 h). The assay is classed as cell-based. The settings on record: Homo sapiens. Summed up: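 Cells plated at 1000/well (NCI-H1975, RPMI1640+10% FBS) or 3000/well (A431, DMEM+10% FBS), dosed next day with compounds (0.1% DMSO final) for 72 h at 37 °C, 5% CO2. Viability by CTG luminescence, normalised to vehicle control; IC50 from nonlinear-regression dose-survival curves.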

The subject of another assay is A431 (EGFR-WT) cells. Nature of the assay: Inhibitory activity on proliferation of A431 (EGFR-WT) cells (CTG, 72 h). The settings on record: Homo sapiens, A-431. The assay is classed as cell-based. Here is the method: NCI-H1975 (EGFR-L858R-T790M) and A431 (EGFR-WT) cells were purchased from ATCC and cultured in an incubator at 37° C. with 5% CO2, and the culture mediums were RPMI1640+10% FBS and DMEM+10% FBS, respectively. On the first day, NCI-H1975 (EGFR-L858R-T790M) and A431 (EGFR-WT) cells in the logarithmic phase were collected, and viable cells were counted using an automatic cell analyzer (countstar). The cell suspensions were adjusted with the culture mediums and plated on a 96-well cell culture plate at 1000 cells/well for NCI-H1975 (EGFR-L858R-T790M) cells and at 3000 cells/well for A431 cells. The next day, the culture mediums were aspirated, and 90 μL of fresh culture mediums and 10 μL of the compounds at different concentrations were added to each well, wherein the final concentration of DMSO in each well was 0.1%. The plate was cultured in the incubator at 37° C. with 5% CO2 for 72 hours. After 72 hours of drug treatment, 50 μL of CTG solution (promega, G7572), which was already pre-melted and equilibrated to room temperature, was added to each well, and the mixtures were uniformly mixed for 2 min using a microplate shaker. The plate was placed at room temperature for 10 min, and then […] signal values were measured using a microplate reader (PHERAstar FSX).
Surviving cells % was calculated based on Vsample/Vvehicle control×100%, wherein Vsample was the readout of the drug-treated group, and Vvehicle control was the average value of the vehicle control group. Using the origin 9.2 software and nonlinear regression model, S-shaped dose-survival curves were plotted, and IC50 values were calculated.

Where [2] appears, read: read-out: IC50 (value in brackets).

Read-outs that look alike come from different tables or passages of the source.

Turning to `COc1cc(N2CCN(C3CCN(CC4CCN(c5cc6c(cc5F)C(=O)N(C5CCC(=O)NC5=O)C6=O)CC4)CC3)CC2)c(-c2cnn(C)c2)cc1Nc1ncc(Cl)c(Nc2ccc(-c3ccccc3)cc2P(C)(C)=O)n1` (stereo not drawn) [Compound 50, 5-(4-((4-(4-(4-((5-chloro-4-((3-(dimethylphosphoryl)-[1,1′-biphenyl]-4-yl)amino)pyrimidin-2-yl)amino)-5-methoxy-2-(1-methyl-1H-pyrazol-4-yl)phenyl)piperazin-1-yl)piperidin-1-yl)methyl)piperidin-1-yl)-2-(2,6-dioxopiperidin-3-yl)-6-fluoroisoindoline-1,3-dione], the IC50 – broadly, the concentration needed to halve the response being measured – in assay [1] (read-out: IC50 (class symbol)) is 0.1 to 0.5 µM; in assay [1] (setting [2]), 0.133 µM; in the assay with A431 (EGFR-WT) cells, not below 10 µM.

Consider `COc1cc(N2CCC(CN3CCC4(CCCN(c5cc6c(cc5F)C(=O)N(C5CCC(=O)NC5=O)C6=O)C4)CC3)CC2)c(-c2cnn(C)c2)cc1Nc1ncc(Br)c(Nc2ccc(-c3ccccc3)cc2P(C)(C)=O)n1` (stereo not drawn) [Compound 61, 5-(9-((1-(4-((5-bromo-4-((3-(dimethylphosphoryl)-[1,1′-biphenyl]-4-yl)amino)pyrimidin-2-yl)amino)-5-methoxy-2-(1-methyl-1H-pyrazol-4-yl)phenyl)piperidin-4-yl)methyl)-2,9-diazaspiro[5.5]undecan-2-yl)-2-(2,6-dioxopiperidin-3-yl)-6-fluoroisoindoline-1,3-dione], for which the figures for the IC50 (in assay [1] (read-out: IC50 (class symbol)); in assay [1] (setting [2]); in the assay on A431 (EGFR-WT) cells) were 0.1 to 0.5 µM, 0.176 µM and not below 10 µM, respectively.

Turning to `COc1cc(N2CCC(CN3CCN(c4ccc(C(=O)NC5CCC(=O)NC5=O)nc4)CC3)CC2)c(-c2cnn(C)c2)cc1Nc1ncc(Cl)c(Nc2ccc(-c3ccccc3)cc2P(C)(C)=O)n1` (stereo not drawn) [Compound 66, 5-(4-((1-(4-((5-chloro-4-((3-(dimethylphosphoryl)-[1,1′-biphenyl]-4-yl)amino)pyrimidin-2-yl)amino)-5-methoxy-2-(1-methyl-1H-pyrazol-4-yl)phenyl)piperidin-4-yl)methyl)piperazin-1-yl)-N-(2,6-dioxopiperidin-3-yl)picolinamide], the figures for the half-maximal inhibitory concentration (IC50) (in assay [1] (read-out: IC50 (class symbol)); in assay [1] (setting [2]); in the assay on A431 (EGFR-WT) cells) were less than 0.1 µM, 0.099 µM and not below 10 µM, respectively.

With `COc1cc(N2CCC(CN3CC4CN(c5ccc6c(c5)C(=O)N(C5CCC(=O)NC5=O)C6=O)CC4C3)CC2)c(-c2cnn(C)c2)cc1Nc1ncc(Br)c(Nc2ccc(-c3ccccc3)cc2P(C)(C)=O)n1` (stereo not drawn) [Compound 78, 5-(5-((1-(4-((5-bromo-4-((3-(dimethylphosphoryl)-[1,1′-biphenyl]-4-yl)amino)pyrimidin-2-yl)amino)-5-methoxy-2-(1-methyl-1H-pyrazol-4-yl)phenyl)piperidin-4-yl)methyl)hexahydropyrrolo[3,4-c]pyrrol-2(1H)-yl)-2-(2,6-dioxopiperidin-3-yl)isoindoline-1,3-dione], the figures for the IC50 (in assay [1] (read-out: IC50 (class symbol)); in assay [1] (setting [2]); in the assay with A431 (EGFR-WT) cells) were less than 0.1 µM, 0.051 µM and not below 10 µM, respectively.

For the molecule `COc1cc(N2CCC3(CCN(c4ccc5c(c4)C(=O)N(C4CCC(=O)NC4=O)C5=O)CC3)CC2)c(-c2cnn(C)c2)cc1Nc1ncc(Br)c(Nc2ccc(-c3ccccc3)cc2P(C)(C)=O)n1` (stereo not drawn) [Compound 79, 5-(9-(4-((5-bromo-4-((3-(dimethylphosphoryl)-[1,1′-biphenyl]-4-yl)amino)pyrimidin-2-yl)amino)-5-methoxy-2-(1-methyl-1H-pyrazol-4-yl)phenyl)-3,9-diazaspiro[5.5]undecan-3-yl)-2-(2,6-dioxopiperidin-3-yl)isoindoline-1,3-dione], the IC50 in assay [1] (read-out: IC50 (class symbol)) is 0.1 to 0.5 µM; in assay [1] (setting [2]), 0.314 µM; with A431 (EGFR-WT) cells, not below 10 µM.
